Results taken from ChEMBL document CHEMBL4038345, “Design, Synthesis, and Biological Evaluation of Novel Selenium-Containing Isocombretastatins and Phenstatins as Antitumor Agents” (J Med Chem, 2017).
Active and inactive are the calls of the source. The rule behind the calls is not given here.

Assays:
[1] = test system: MDA-MB-231; test: Antiproliferative activity against human MDA-MB-231 cells after 48 hrs by MTT assay; conditions: MDA-MB-231, 48 h
[2] = test system: LoVo; test: Antiproliferative activity against human LoVo cells after 48 hrs by MTT assay
[3] = test system: RKO; test: Antiproliferative activity against human RKO cells after 48 hrs by MTT assay
[4] = test system: A549; test: cells; conditions: Homo sapiens, A549, 48 h
[5] = test system: HepG2; test: cells; conditions: Homo sapiens, HepG2, 48 h
[6] = test system: A549; test: Antitumor activity against human A549 cells xenografted in BALB/c nude mouse assessed as tumor growth inhibition at 30 mg/kg, ip; assay type: functional; conditions: read-out: TGI
[7] = test system: Mus musculus; test: Toxicity in BALB/c nude mouse xenografted with human A549 cells assessed as change in body weight at 30 mg/kg, ip; assay type: organism-based; conditions: in vivo
[8] = test system: MGC-803; test: Antiproliferative activity against human MGC803 cells after 48 hrs by MTT assay; conditions: MGC-803, 48 h
[9] = test system: A549/CDDP; test: Antiproliferative activity against human A549/CDDP cells after 48 hrs by MTT assay; assay type: functional, cell-based
[10] = Antiproliferative activity against human HepG2/DOX cells after 48 hrs by MTT assay; assay type: functional, cell-based
[11] = Resistance index, ratio of IC50 for human A549/CDDP cells to IC50 for human A549 cells; assay type: functional
[12] = Resistance index, ratio of IC50 for human HepG2/DOX cells to IC50 for human HepG2 cells; assay type: functional
[13] = Metabolic stability in Sprague-Dawley rat liver microsomes assessed as compound remaining after 30 mins in presence of NADPH by UV-based HPLC-MS/MS analysis; assay type: ADME, microsome; conditions: read-out: Stability
[14] = Metabolic stability in Sprague-Dawley rat liver microsomes assessed as compound remaining after 60 mins in presence of NADPH by UV-based HPLC-MS/MS analysis; assay type: ADME, microsome; conditions: read-out: Stability
[15] = Metabolic stability in Sprague-Dawley rat liver microsomes assessed as compound remaining after 90 mins in presence of NADPH by UV-based HPLC-MS/MS analysis; assay type: ADME, microsome; conditions: read-out: Stability
[16] = Metabolic stability in Sprague-Dawley rat liver microsomes assessed as compound remaining after 120 mins in presence of NADPH by UV-based HPLC-MS/MS analysis; assay type: ADME, microsome; conditions: read-out: Stability
[17] = (§1) Metabolic stability in Sprague-Dawley rat liver microsomes assessed as compound remaining after 150 mins in presence of NADPH by UV-based HPLC-MS/MS analysis; assay type: ADME, microsome; conditions: Sprague-Dawley, liver microsomes, read-out: Stability
[18] = Half life in Sprague-Dawley rat by UV-based HPLC-MS/MS analysis; assay type: ADME; conditions: in vivo
[19] = Inhibition of porcine brain tubulin polymerization measured every 60 seconds for 90 mins by DAPI staining-based fluorescence assay; design: species or system Sus scrofa
[20] = test system: A549; test: Induction of microtubule disruption in human A549 cells at 5 to 10 nM after 8 to 24 hrs by Hoechst 33342 staining-based laser scanning confocal immunofluorescence microscopic analysis; assay type: cell-based
[21] = test system: MCF7; test: cells; conditions: Homo sapiens, MCF7, 48 h
[22] = test system: HeLa; test: cells; conditions: Homo sapiens, 48 h
[23] = test system: HCT-116; test: cells; conditions: Homo sapiens, HCT-116, 48 h
[24] = test system: A2780; test: cells; conditions: Homo sapiens, A2780, 48 h
Description: Antiproliferative activity against human A2780 cells after 48 hrs by MTT assay

[25] = test system: Liver; test: as §1; assay type: ADME, microsome; conditions: microsomes, 2.5 h

SMILES	IC50 [1]	IC50 [2]	IC50 [3]	IC50 [4]	IC50 [5]	other results
COc1ccc(C(=O)c2cc(OC)c(OC)c([Se]C)c2)cc1O	24 nM	53 nM	79 nM	55 nM	31 nM	–
COc1ccc(C(=O)c2cc(OC)c(OC)c([Se]C)c2)cc1OC	1020 nM	766 nM	306 nM	285 nM	1090 nM	–
C=C(c1ccc(OC)c(Cl)c1)c1cc(OC)c(OC)c([Se]C)c1	83 nM	254 nM	451 nM	196 nM	298 nM	–
COc1ccc(C(=O)c2cc(OC)c(OC)c([Se]C)c2)cc1Cl	865 nM	189 nM	253 nM	949 nM	1530 nM	–
C=C(c1ccc(OC)c(OC)c1)c1cc(OC)c(OC)c([Se]C)c1	344 nM	299 nM	216 nM	265 nM	473 nM	–
COc1cc(C(=O)c2cc(OC)c(OC)c([Se]C)c2)cc(OC)c1OC	741 nM	921 nM	235 nM	172 nM	288 nM	–
COc1cc(C(=O)c2ccc([Se]C)cc2)cc(OC)c1OC	65 nM	296 nM	66 nM	69 nM	77 nM	–
COc1ccc(C(=O)c2cc(OC)c(OC)c([Se]C)c2)cc1	57 nM	145 nM	47 nM	31 nM	85 nM	–
COc1cc(C(=O)c2ccc(OC)c(OC)c2OC)cc([Se]C)c1OC	4260 nM	523 nM	874 nM	2750 nM	4340 nM	–
C=C(c1ccc(OC)c(OP(=O)(O)O)c1)c1cc(OC)c(OC)c(OC)c1	–	–	–	–	–	inhibition in vivo at 30 mg/kg [6]: 52.2%
C=C(c1cc(OC)c(OC)c([Se]C)c1)c1ccc(OC)c(OC)c1OC	3820 nM	128 nM	1040 nM	1380 nM	6300 nM	–
COc1ccc(/C=C\c2cc(OC)c(OC)c(OC)c2)cc1OP(=O)(O)O [FOSBRETABULIN DISODIUM]	–	–	–	–	–	inhibition in vivo at 30 mg/kg [6]: 47.6%
C=C(c1ccc(OC)c(OP(=O)([O-])[O-])c1)c1cc(OC)c(OC)c([Se]C)c1.[Na+].[Na+]	–	–	–	–	–	inhibition in vivo at 30 mg/kg [6]: 72.9%; Activity [7]: Non-Toxic
C=C(c1ccc(OC)c(O)c1)c1cc(OC)c(OC)c(OC)c1	8.5 nM	3.7 nM	3.8 nM	3.5 nM	18.3 nM	IC50 [8]: 19.8 nM; IC50 [9]: 69.1 nM; IC50 [10]: 38.6 nM; Ratio IC50 [11]: 19.7; Ratio IC50 [12]: 2.1; remaining at 0.5 h [13]: 85.7%; remaining at 1 h [14]: 77.1%; remaining at 1.5 h [15]: 67.3%; remaining at 2 h [16]: 49.8%; remaining at 2.5 h [17]: 34.3%; half-life [18]: 1.7 h; IC50 [19]: 2760 nM; Activity [20]: Active; IC50 [21]: 48 nM; IC50 [22]: 6 nM; IC50 [23]: 24 nM; IC50 [24]: 26 nM
COc1ccc(C(=O)c2cc(OC)c(OC)c([Se]C)c2)cc1Br	435 nM	1750 nM	169 nM	368 nM	655 nM	–
C=C(c1ccc([Se]C)cc1)c1cc(OC)c(OC)c(OC)c1	178 nM	279 nM	216 nM	97 nM	386 nM	–
COc1ccc(/C=C\c2cc(OC)c(OC)c(OC)c2)cc1O [COMBRETASTATIN A4]	–	–	–	–	–	remaining at 0.5 h [13]: 67.2%; remaining at 1 h [14]: 26.4%; remaining at 1.5 h [15]: 22.5%; remaining at 2 h [16]: 19.9%; Stability [25]: Nd(Unstable)
C=C(c1ccc(OC)c(C)c1)c1cc(OC)c(OC)c([Se]C)c1	599 nM	496 nM	245 nM	141 nM	607 nM	–
C=C(c1ccc(OC)c(Br)c1)c1cc(OC)c(OC)c([Se]C)c1	667 nM	171 nM	343 nM	236 nM	691 nM	–
COc1ccc(C(=O)c2cc(OC)c(OC)c(OC)c2)cc1O [PHENSTATIN]	62 nM	122 nM	72 nM	179 nM	108 nM	–
C=C(c1ccc(OC)c(F)c1)c1cc(OC)c(OC)c([Se]C)c1	24 nM	33 nM	82 nM	29 nM	87 nM	–
C=C(c1ccc(OC)cc1)c1cc(OC)c(OC)c([Se]C)c1	96 nM	91 nM	107 nM	72 nM	126 nM	–
C=C(c1cc(OC)c(OC)c(OC)c1)c1cc(OC)c(OC)c([Se]C)c1	3320 nM	3140 nM	3520 nM	473 nM	1350 nM	–
COc1ccc(C(=O)c2cc(OC)c(OC)c([Se]C)c2)cc1F	34 nM	57 nM	59 nM	33 nM	47 nM	–
COc1ccc(C(=O)c2cc(OC)c(OC)c([Se]C)c2)cc1C	997 nM	3150 nM	5280 nM	1730 nM	2300 nM	–
